# From patent US20240309003A1, “HETEROCYCLIC COMPOUNDS AS TRIGGERING RECEPTOR EXPRESSED ON MYELOID CELLS 2 AGONISTS AND METHODS OF USE” (Vigil Neuroscience, Inc., priority 2021, published 2024)
# Target: T1, human TREM2 (Homo sapiens, UniProt Q9NZC2)
# T1 construct: expressed in transfected cells; host or cells: HEK293T
# Test: TREM2 agonist potency by cellular phosphorylation of Syk (AlphaLisa) in HEK293T-hTREM2 cells
# Type: cell-based
# Details: HEK293 cells expressing human TREM2 and DAP12, Table D
# Procedure: In Vitro Measurement of Triggering Receptor Expressed on Myeloid Cells 2 Activity Using Cellular Phosphorylation of Spleen Tyrosine Kinase (“Syk”) Assays
# Measurement of TREM2 agonist potency was done using a HEK cell line expressing human TREM2 and DAP12 (HEK293T-hTREM2 cells). Binding of small molecules to, and activation of, TREM2 increases the phosphorylation of Syk. The resultant levels of Syk phosphorylation are measured using a commercial AlphaLisa reagent kit. To perform the assay, HEK-hTREM2 cells were plated at 14,000 cells per well in a 384 well plate, in 25 μL of complete growth media and incubated at 37° C., 5% CO2 for 20-24 hours.
# Prior to the assay, test compounds were diluted in the 384 well plates in assay buffer and allowed to equilibrate for 30 minutes. Growth media was removed from cell plates by inversion on blotting paper, and 25 μL of test articles in assay buffer was added to cells. Cells were incubated for 45 minutes at room temperature. After 45 minutes, assay buffer was removed and 10 μL of lysis buffer was added. Plates were shaken for 20 minutes at 350 RPM at room temperature. After complete lysis, AlphaLisa reagents were added to the lysate, and fluourescence intensity was measured using a Perkin Elmer Envision plate reader. Intensities were used to generate a standard curve, and % activation was calculated. Curve fitting was performed using Prism v9 software, log(agonist) vs response-variable slope (four parameters), and EC50s were calculated from the curve fit.
# This assay may be used to test any of the compounds described herein to assess and characterize a compound's ability to act as an agonist of TREM2.
# T1 sequence (Q9NZC2 19-230): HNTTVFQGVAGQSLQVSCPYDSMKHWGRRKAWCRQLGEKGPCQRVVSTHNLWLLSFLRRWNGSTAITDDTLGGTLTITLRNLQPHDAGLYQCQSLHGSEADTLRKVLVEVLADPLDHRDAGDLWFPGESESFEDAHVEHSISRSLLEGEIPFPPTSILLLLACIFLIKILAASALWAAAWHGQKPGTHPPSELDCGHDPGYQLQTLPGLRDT
# T1 sequence (O43914 22-113 partner): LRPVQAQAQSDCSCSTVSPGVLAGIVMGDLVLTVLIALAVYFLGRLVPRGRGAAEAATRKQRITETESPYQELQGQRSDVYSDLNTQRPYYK
row,EC50,SMILES
1,50 to 500 nM,"Cc1cc([C@H]2C[C@@H](c3nc(-c4ccc(C(F)(F)F)nc4)c4nc(C)c(C)nc4n3)CCO2)ccn1 (racemic) [Example 4, 6,7-dimethyl-2-((2R,4S)-2-(2-methylpyridin-4-yl)tetrahydro-2H-pyran-4-yl)-4-(6-(trifluoromethyl)pyridin-3-yl)pteridine]"
2,< 50 nM,"Cc1cnc2c(C34CC(C(F)(F)F)(C3)C4)nc(N3C[C@@H](C)O[C@@H](c4cnn(C5CC5)c4)C3)nc2n1 (racemic) [Example 49, 2-(1-cyclopropyl-1H-pyrazol-4-yl)-6-methyl-4-(7-methyl-4-(3-(trifluoromethyl)bicyclo[1.1.1]pentan-1-yl)pteridin-2-yl)morpholine]"
3,< 50 nM,"Cc1cnc2c(-c3ccc(Cl)cc3F)nc(N3C[C@@H](C)O[C@@H](c4cnn(C5CC5)c4)C3)nc2n1 (racemic) [Example 70, 4-(4-(4-chloro-2-fluorophenyl)-7-methylpteridin-2-yl)-2-(1-cyclopropyl-1H-pyrazol-4-yl)-6-methylmorpholine]"
4,< 50 nM,"Cc1cc([C@H]2C[C@@H](c3nc(-c4cc(F)c(Cl)c(F)c4)c4nc(C)c(C)nc4n3)CCO2)ccn1 (racemic) [Example 84, 4-(4-chloro-3,5-difluoro-phenyl)-6,7-dimethyl-2-[(2R,4S)-2-(2-methyl-4-pyridyl)tetrahydropyran-4-yl]pteridine]"
5,< 50 nM,"Cc1cc([C@H]2C[C@@H](c3nc(-c4ccc(Cl)c(F)c4F)c4ncc(C)nc4n3)CCO2)ccn1 (racemic) [Example 89, 4-(4-chloro-2,3-difluorophenyl)-7-methyl-2-(2-(2-methylpyridin-4-yl)tetrahydro-2H-pyran-4-yl)pteridine]"
6,< 50 nM,"[2H]C1([2H])C[C@@H](c2nc(-c3ccc(F)cc3F)c3nc(C)c(C)nc3n2)C[C@@H](c2cnn(C3CC3)c2)O1 (single isomer, unassigned) [Example 170]"
7,3000 to 100000 nM,"[2H][C@@]1(c2cnn(C3CC3)c2)C[C@H](c2nc(-c3ccc(F)cc3F)c3nc(C)c(C)nc3n2)CCO1 (single isomer, unassigned) [Example 183]"
8,3000 to 100000 nM,"[2H]C1([2H])C[C@@H](c2nc(-c3ccc(F)cc3F)c3nc(C)c(C)nc3n2)C[C@@]([2H])(c2cnn(C3CC3)c2)O1 (single isomer, unassigned) [Example 191]"

# Same assay, conditions: HEK293 cells expressing human TREM2 and DAP12, Table D-2
row,EC50,SMILES
1,< 50 nM,"COc1nc2c(-c3ccc(Cl)cc3F)nc([C@@H]3CCO[C@H](c4cnn(C5CC5)c4)C3)nc2nc1C (racemic) [Example I-1221, 4-(4-chloro-2-fluoro-phenyl) −6-methoxy-7-methyl-2-[rac-(2S,4R)-2-(1-cyclopropylpyrazol-4-yl)tetrahydropyran-4-yl]pteridine]"
2,< 50 nM,"COc1nc2c(-c3ccc(F)cc3F)nc([C@@H]3CCO[C@H](c4cnn(C5CC5)c4)C3)nc2nc1C (racemic) [Example I-1653, 4-(2,4-difluorophenyl)-6-methoxy-7-methyl-2-[rac-(2R,4S)-2-(1-cyclopropylpyrazol-4-yl)tetrahydropyran-4-yl]pteridine]"
3,50 to 500 nM,"Cc1nc2nc(C3CCS(=O)(=O)N(c4cnn(C5CC5)c4)C3)nc(-c3ccc(Cl)cc3F)c2nc1C (racemic) [Example I-1733, 4-[4-(4-chloro-2-fluoro-phenyl)-6,7-dimethyl-pteridin-2-yl]-2-(1-cyclopropylpyrazol-4-yl)thiazinane 1,1-dioxide]"
4,< 50 nM,"CCCc1nc2nc(N3C[C@@H](C)O[C@@H](c4cnn(C5CC5)c4)C3)nc(-c3ccc(F)cc3F)c2nc1C (single isomer, unassigned) [Example I-1288]"
5,< 50 nM,"Cc1nc2nc(N3C[C@@H](C(F)F)O[C@@H](c4cnn(C5CC5)c4)C3)nc(-c3ccc(F)cc3F)c2nc1C (single isomer, unassigned) [Example I-1467]"
6,< 50 nM,"Cc1nc2nc(N3C[C@@H](c4cnn(C5CC5)c4)O[C@@H](C(F)F)C3)nc(-c3ccc(F)cc3F)c2nc1C (single isomer, unassigned) [Example I-1524]"
